The values below come from paper PMC5486114, “Interactions between a Heparin Trisaccharide Library and FGF-1 Analyzed by NMR Methods” (International Journal of Molecular Sciences, 2017).

Like-named read-outs stand apart in the source and are kept apart here.

Assay [1] addresses T1, Human recombinant FGF-1 (Homo sapiens, UniProt P05230).
T1 construct: Human recombinant FGF-1 consisting of 141 residues; purchased Peprotech; host or cells: E. coli
The experiment in a line: STD-NMR initial growth rates (STD0) of trisaccharides in presence of FGF-1. The format is binding. Conditions: for STD0 H1-C: anomeric proton of ring C, 600 MHz, 289 K, protein 19 µM, ligand 1.6 mM; for Relative STD0 H1-A / Relative STD0 H1-B / Relative STD0 H1-C: relative to largest anomeric STD0 of the compound (=100). The source says: STD-NMR [30] studies were acquired for all the trisaccharides in the library in presence of FGF-1 using the same experimental conditions (see material and methods). Transference of saturation for all trisaccharides probed the interaction with the protein. Nevertheless, in contrast to the case of Langerin interaction, the results differed between the different compounds, indicating the existence of some differences in binding. Unfortunately, the spectral crowding only allowed us to accurately integrate the three anomeric signals along the saturation times, see Figure 3. Using a methodology previously described for disconnect the effect from proton relaxation on the STD values at a given time, the values of the initial rate of growth of STD (STD0) for the considered signals were obtained for the signals under consideration (Figure 4, Table 1). The distribution of magnetization along the trisaccharide chain is rather homogeneous, and is compatible with an extended interaction along the positive cleft of FGF-1, where the main binding site is located.
STD-NMR Experiments. All the samples were prepared in 250 μL 5 mM phostate buffer at pH 6.0 and 100 mM NaCl in 99.9% D2O. The concentration of the protein was 19 µM, and the ligand was 1.6 mM. The ratio between the protein and ligand was 1:84. The experiments were performed at 289 K. STD-NMR experiments were carried out with spin-lock to suppress protein signals. Moreover, we tried to suppress the solvent using excitation sculpting with gradients, and we used a shaped pulse train for saturation, alternating between on and off resonance. The on-resonance and off-resonance frequencies were set to 0.7 and 40 ppm, respectively. A spoil sequence was used to destroy unwanted magnetization. The saturation times were 0.5, 1, 2, 3 and 4 s, with an additional delay set to 3.6, 3.1, 2.1, 1.1 and 0.1, respectively, in order to keep the relaxation delay constant at […] for all experiments. STD NMR experiments were performed with 2048 scans with a total experimental time for every point of 5 h.
The STD initial rates (STD0) were calculated from the curve of STD vs. saturation time. To do so, we utilized the equation: STD0(t) = a [1 − exp (−bt)], where a represents the asymptotic maximum of the STD build-up curve (STDmax), b is a rate constant that depends on the relaxation properties of a given proton that measures the rate of the STD build-up (Ksat), and t is the saturation time (tsat). The STD0 values were obtained as the product of the ab coefficients.

Assay [2] addresses T1, Human recombinant FGF-1. The assay can be described thus: IC50 by STD-NMR, initial rates of the STD affinity factor (STD0-AF). The format is binding. The following applies: 600 MHz, 298 K; authors do not support validity of the result; read-out: IC50 (STD-NMR, STD0-AF method). As to the method:
(§1) IC50 values using STD-NMR were calculated for compound 1 at different concentrations based on the initial rates of the affinity factor method (Figure 5). […] In this case, due to the electrostatic nature of the complex, the gap between the protein and the ligand protons is very large, yielding low magnetization transfer values. On other hand, the small binding constant implies a large consumption of trisaccharide due to the high concentration needed to complete a meaningful titration curve. This, together with the large amount of time needed to record the full series of experiments, forced us to consider another method for the estimation of the IC50. Thus, we explored the IC50 calculation using selective T1 at different concentrations (Figure 6). Nevertheless, they are in agreement with the values obtained by Yu-Peng et al., when performing the same measure with disaccharides and FGF-2 by ITC [18].
STD-NMR Experiments. […]
IC50 was obtained using the initial rates of the STD affinity factor approximation. The STD-AF initial slopes (STD-AF0) were calculated as before from the curve of STD-AF vs. saturation time at several ligand concentrations. From these initial slopes, the binding isotherm was built (STD-AF0 vs. ligand concentration), and the curve fitted to a Langmuir equation, from which the IC50 value was determined.

In assay [3] the target is T1, Human recombinant FGF-1. The assay can be described thus: IC50 by selective T1 (T1sel) NMR at different ligand concentrations. It is filed as binding. The following applies: T1sel method; 20 μM protein, ligand 80-640 μM. As to the method:
as §1
Selective T1 NMR experiments. The samples were prepared using the same buffer at 20 μM protein concentration, while ligand concentration was 80, 160, 320, 480 and 640 μM. The ratios between protein and ligand were then 1:4, 1:8, 1:16, 1:24 and 1:32, respectively. We carry out studies on ^1H longitudinal relaxation rate (1/T1(sel). The relaxation times were measured by inversion recovery pulse sequence.
To determine the IC50, we adjusted the experimental values of the intensity signals vs. recovery delays to obtain an exponential function. We obtained the selective T1 value by f(t) = I0 × [1 − a × exp (−t/T1)]. In a ligand-receptor system where the ligand is present in large excess over the receptor binding sites, the ligand relaxation rate is describe by 1/T1obs = 1/T1free + fbound/(T1bound + tbound), where fbound is the fraction bound ([PL]/[L]) and τbound is the lifetime of the bound state. The relationship between total ligand concentration and T1 is then [P]0T1obs = ([L]0 + IC50)(T1bound + τbound), and a plot of [P]0 T1obs versus [L]0 gives a straight line with IC50 obtained from the intercept of the x axis.

Assay [4] has as its target T1, Human recombinant FGF-1. The assay can be described thus: STD-NMR initial growth rates (STD0) of trisaccharides in presence of FGF-1. The format is binding. Conditions: 600 MHz, 289 K, protein 19 µM, ligand 1.6 mM; for STD0 H1-A: anomeric proton of ring A; for STD0 H1-B: anomeric proton of ring B.
For assay [5], the target named is WGA (Wheat Germen Agglutinin). The assay can be described thus: T1sel validation assay: binding of GlcNAc to WGA. The following applies: T1sel method; lectin 20 uM; preliminary assay. As to the method: page 7: Calculation of Binding Constants using T1sel. We have used the T1sel method for the evaluation of the KD binding. In order to assess the validity of the method we performed a preliminary assay using the known system of the binding of GlcNAc to WGA (Wheat […] Agglutinin) using a concentration of lectin of 20 uM. […] T1sel method is described in the experimental section of the main paper. (1 picture or pasted object on this page, not shown here)

Assay [6] has as its target WGA (Wheat Germen Agglutinin). The following applies: reported value, no reference given; cited from earlier work.

T1 sequence (P05230 with tags, fused parts or gaps limits assumed): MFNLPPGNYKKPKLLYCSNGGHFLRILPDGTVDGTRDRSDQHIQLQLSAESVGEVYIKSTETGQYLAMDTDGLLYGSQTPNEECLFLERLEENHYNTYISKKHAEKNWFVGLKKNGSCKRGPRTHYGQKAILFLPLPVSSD

For orientation: IC50 means the concentration at which inhibition is half-maximal. On to `CC(C)O[C@H]1O[C@H](COS(=O)(=O)O)[C@@H](O[C@@H]2O[C@@H](C(=O)O)[C@@H](O[C@H]3O[C@H](COS(=O)(=O)O)[C@@H](O)[C@H](O)[C@H]3NS(=O)(=O)O)[C@H](O)[C@H]2OS(=O)(=O)O)[C@H](O)[C@H]1NS(=O)(=O)O` [Compound 1], for which, at Human recombinant FGF-1 [1], the “STD0 H1-C” value worked out at 0.42, the “Relative STD0 H1-A” value is 66, the “Relative STD0 H1-B” value is 80 and the “Relative STD0 H1-C” value was 100. Moreover, the IC50 on Human recombinant FGF-1 [2] worked out at 1700 ± 10 µM. Further, on Human recombinant FGF-1 [3], the concentration for half-maximal inhibition (IC50) amounted to 49.2 ± 0.3 µM. On Human recombinant FGF-1 [4], the “STD0 H1-A” value worked out at 0.28 and the “STD0 H1-B” value is reported as 0.34.
Consider `CC(=O)N[C@H]1[C@@H](OC(C)C)O[C@H](COS(=O)(=O)O)[C@@H](O[C@@H]2O[C@@H](C(=O)O)[C@@H](O[C@H]3O[C@H](COS(=O)(=O)O)[C@@H](O)[C@H](O)[C@H]3NS(=O)(=O)O)[C@H](O)[C@H]2OS(=O)(=O)O)[C@@H]1O` [Compound 2], for which, at Human recombinant FGF-1 [1], the “STD0 H1-C” value is 0.24, the “Relative STD0 H1-A” value worked out at 31, the “Relative STD0 H1-B” value is listed as 100 and the “Relative STD0 H1-C” value turned out to be 68. Also, the IC50 on Human recombinant FGF-1 [3] came out at 26.1 ± 0.7 µM. In addition, at Human recombinant FGF-1 [4], the “STD0 H1-A” value came to 0.11 and the “STD0 H1-B” value is given as 0.36.
In the case of `CC(C)O[C@H]1O[C@H](COS(=O)(=O)O)[C@@H](O[C@@H]2O[C@@H](C(=O)O)[C@@H](O[C@H]3O[C@H](CO)[C@@H](O)[C@H](O)[C@H]3NS(=O)(=O)O)[C@H](O)[C@H]2OS(=O)(=O)O)[C@H](O)[C@H]1NS(=O)(=O)O` [Compound 3], at Human recombinant FGF-1 [1], the “STD0 H1-C” value was found to be 0.20, the “Relative STD0 H1-A” value was 72, the “Relative STD0 H1-B” value is reported as 100 and the “Relative STD0 H1-C” value is recorded as 88. Besides, on Human recombinant FGF-1 [3], the IC50 was 15.4 ± 0.4 µM. Besides, on Human recombinant FGF-1 [4], the “STD0 H1-A” value was 0.17 and the “STD0 H1-B” value was 0.23.
`CC(=O)N[C@H]1[C@@H](OC(C)C)O[C@H](COS(=O)(=O)O)[C@@H](O[C@@H]2O[C@@H](C(=O)O)[C@@H](O[C@H]3O[C@H](CO)[C@@H](O)[C@H](O)[C@H]3NS(=O)(=O)O)[C@H](O)[C@H]2OS(=O)(=O)O)[C@@H]1O` [Compound 4]: on Human recombinant FGF-1 [1], the “STD0 H1-C” value is on record as 0.24, the “Relative STD0 H1-A” value was determined as 67, the “Relative STD0 H1-B” value was 100 and the “Relative STD0 H1-C” value came to 94. The concentration for half-maximal inhibition (IC50) on Human recombinant FGF-1 [2] worked out at 1700 µM. The IC50 on Human recombinant FGF-1 [3] worked out at 84.7 ± 0.4 µM. Besides, at Human recombinant FGF-1 [4], the “STD0 H1-A” value is listed as 0.17 and the “STD0 H1-B” value stood at 0.25.
As for `CC(C)O[C@H]1O[C@H](CO)[C@@H](O[C@@H]2O[C@@H](C(=O)O)[C@@H](O[C@H]3O[C@H](COS(=O)(=O)O)[C@@H](O)[C@H](O)[C@H]3NS(=O)(=O)O)[C@H](O)[C@H]2OS(=O)(=O)O)[C@H](O)[C@H]1NS(=O)(=O)O` [Compound 5], on Human recombinant FGF-1 [1], the “STD0 H1-C” value was 0.06, the “Relative STD0 H1-A” value is reported as 100, the “Relative STD0 H1-B” value turned out to be 82 and the “Relative STD0 H1-C” value worked out at 87. Moreover, at Human recombinant FGF-1 [3], the concentration for half-maximal inhibition (IC50) worked out at 50.6 ± 0.1 µM. Further, at Human recombinant FGF-1 [4], the “STD0 H1-A” value was found to be 0.07 and the “STD0 H1-B” value was found to be 0.06.
As to `CC(=O)N[C@H]1[C@@H](OC(C)C)O[C@H](CO)[C@@H](O[C@@H]2O[C@@H](C(=O)O)[C@@H](O[C@H]3O[C@H](COS(=O)(=O)O)[C@@H](O)[C@H](O)[C@H]3NS(=O)(=O)O)[C@H](O)[C@H]2OS(=O)(=O)O)[C@@H]1O` [Compound 6], on Human recombinant FGF-1 [1], the “STD0 H1-C” value was determined as 0.12, the “Relative STD0 H1-A” value is 62, the “Relative STD0 H1-B” value was found to be 100 and the “Relative STD0 H1-C” value stood at 94. The IC50 on Human recombinant FGF-1 [3] was 181 ± 5.5 µM. For the same molecule, at Human recombinant FGF-1 [4], the “STD0 H1-A” value worked out at 0.08 and the “STD0 H1-B” value is 0.12.
In the case of `CC(C)O[C@H]1O[C@H](CO)[C@@H](O[C@@H]2O[C@@H](C(=O)O)[C@@H](O[C@H]3O[C@H](CO)[C@@H](O)[C@H](O)[C@H]3NS(=O)(=O)O)[C@H](O)[C@H]2OS(=O)(=O)O)[C@H](O)[C@H]1NS(=O)(=O)O` [Compound 7], on Human recombinant FGF-1 [1], the “STD0 H1-C” value came out at 0.11, the “Relative STD0 H1-A” value is on record as 100, the “Relative STD0 H1-B” value was found to be 48 and the “Relative STD0 H1-C” value was 64. The IC50 on Human recombinant FGF-1 [3] worked out at 46.7 ± 0.9 µM. At Human recombinant FGF-1 [4], the “STD0 H1-A” value is 0.18 and the “STD0 H1-B” value is 0.08.
In the case of `CC(=O)N[C@H]1[C@@H](OC(C)C)O[C@H](CO)[C@@H](O[C@@H]2O[C@@H](C(=O)O)[C@@H](O[C@H]3O[C@H](CO)[C@@H](O)[C@H](O)[C@H]3NS(=O)(=O)O)[C@H](O)[C@H]2OS(=O)(=O)O)[C@@H]1O` [Compound 8], on Human recombinant FGF-1 [1], the “STD0 H1-C” value was 0.19, the “Relative STD0 H1-B” value is 99 and the “Relative STD0 H1-C” value is given as 100. For the same molecule, the IC50 at Human recombinant FGF-1 [3] was found to be 132 ± 1.8 µM. Besides, the “STD0 H1-B” value at Human recombinant FGF-1 [4] came to 0.18.
Broadly, the Kd is the concentration at which binding is half-saturated. In the case of `CC(=O)N[C@H]1C(O)O[C@H](CO)[C@@H](O)[C@@H]1O` (stereo partly shown) [GlcNAc], the Kd is 2100 µM in assay [5] and 2500 µM in assay [6].
